Assays:
[1] = test system: HER2-/PIK3CAwt HCC1806 breast tumor model; assay: In vivo antitumor efficacy, oral once daily; parameters: species or system mice; conditions: HCC1806 tumors; even at the highest 40 mg/kg oral qd
Method: Animal studies were performed under protocols approved by Institutional Animal Care and Use Committee (IACUC) of Fudan University. Balbc female nude mice bearing MDA-MB-453, HCC1806 or 786-O tumors were staged at initial tumor volume of 150-200 mm^3 and randomized into treatment groups (n=/>8). […] Lapatinib and Sunitinib were formulated in 0.5% hydroxypropyl methyl cellulose (HPMC)-0.2% tween-80 as homogeneous suspension. All test agents were prepared twice weekly. Mice were dosed orally once daily (qd). Tumor growth inhibition rate (TGI) was calculated: TGI=[1-(Vt-Vi)/(Vc-Vi)]×100, where Vt: tumor volume of drug treated group, Vc: tumor volume of vehicle control group, Vi: initial tumor volume at staging. For biomarker studies, frozen tumors were made lysates and immunoblotted as previously described. For detecting apoptosis, tumors were excised, fixed in 4% formalin for 24 h and embedded in paraffin. […] The slides were blocked in Tris buffered saline with 5% BSA-0.3 M glycine and reacted with anti-CPT1A (Proteintech #15184-1-AP) or anti-P-ACL S455 (Abcam #59297) and detected with peroxidase-conjugated secondary antibody (Jackson # 111-035-003). […] Staining levels were analyzed on the basis of mean optical density quantified by software image pro plus 6.0.

[2] = test system: mTORC1 substrates P-S6K1(T389), P-S6(S235/6), P-4EBP1(T70) and mTORC2 substrate P-AKT(S473) in 786-O, U87MG and MDA-MB-453 cells; assay: Immunoblotting of mTORC1 and mTORC2 biomarkers in tumor cells; type: cell-based
Method: For standard assay of inhibitor effects on cellular biomarker expression, cells were plated at pre-determined density in 6-well or 12-well culture plates for overnight, treated with inhibitors for the indicated doses and times. Cells were lysed in NuPAGE-LDS lysis buffer (Invitrogen) and immunoblotted with antibodies including P-S6K1(T389), S6, P-4EBP1(T70), 4EBP1, P-GSK3(S21/9), GSK3, cyclin D1, Raptor, Rictor, P-ACL(S455), ACL, cleaved-PARP (Cell Signaling Technology); P-S6(S235/6), AKT(S473), AKT, Bim (Abcam-Epitomics); c-Myc (Santa Cruz); Mcl-1 (Affinity); CPT1A (Proteintech); β-actin and GAPDH (Bioworld).

MDA-MB-453 cells [3] = assay: Total cellular acetyl-CoA level; type: cell-based; conditions: 24 h
Method: (§1) Cellular glucose-to-lipid conversion was measured as described. Briefly, cells were pretreated with inhibitors for 2 h, incubated for 2 h in medium containing 2 μCi/mL D-[1-14C] glucose (PerkinElmer, NEC043X001MC). Total lipids were extracted twice with 300 μL hexane:isopropanol (3:2; vol:vol). Cell debris was carefully removed by centrifugation at 14,000 rpm for 5 min using a microcentrifuge. Radioactive lipids were dried, redissolved with 100 μL of chloroform and determined by liquid scintillation counting. A duplicate assay plate without radioactive glucose label was used to count the number of cells per treatment. Glucose to total lipid conversion rate is the radioactive counts from the extracted lipid normalized by the number of cells per hour of ^14C-glucose incubation. For acetyl-CoA assay, cells grown in 96-well plates were washed and lysed in 40 μL/well using lysis buffer. Cell lysates were transferred to V-bottom plates, cleared by centrifugation. 30 μL of the cleared cell lysates were subjected to acetyl-CoA measurement using an acetyl-CoA assay kit (Sigma, MAK-039) following manufacturer's assay manual. Duplicate assay plates were used to count the number of cells per treatment for normalization in determining cellular acetyl-CoA levels.

MDA-MB-453 cells [4] = assay: Glucose-to-lipid conversion (de novo lipid synthesis); type: cell-based; conditions: 4 h, saturating dose (5 μM MTI-31, 1 μM rapamycin)
Method: as §1

MDA-MB-231 cells = assay: as above; type: cell-based; conditions: similar treatment, 4 h saturating dose
Method: as §1

PDGFRB = target: T1, PDGFRB (Homo sapiens, UniProt P09619); assay: KINOMEscan binding assay; conditions: 1000 nM, percent control relative to vehicle
T1 construct: purchased DiscoveRx KINOMEscan
Excerpt: (§2) IC50 values were generated using Graphpad PRISM 5 software.

CSF1R = target: T2, CSF1R (Homo sapiens, UniProt P07333); assay: KINOMEscan binding assay; conditions: 1000 nM, percent control relative to vehicle
T2 construct: purchased DiscoveRx KINOMEscan
T2 sequence (P07333 20-972): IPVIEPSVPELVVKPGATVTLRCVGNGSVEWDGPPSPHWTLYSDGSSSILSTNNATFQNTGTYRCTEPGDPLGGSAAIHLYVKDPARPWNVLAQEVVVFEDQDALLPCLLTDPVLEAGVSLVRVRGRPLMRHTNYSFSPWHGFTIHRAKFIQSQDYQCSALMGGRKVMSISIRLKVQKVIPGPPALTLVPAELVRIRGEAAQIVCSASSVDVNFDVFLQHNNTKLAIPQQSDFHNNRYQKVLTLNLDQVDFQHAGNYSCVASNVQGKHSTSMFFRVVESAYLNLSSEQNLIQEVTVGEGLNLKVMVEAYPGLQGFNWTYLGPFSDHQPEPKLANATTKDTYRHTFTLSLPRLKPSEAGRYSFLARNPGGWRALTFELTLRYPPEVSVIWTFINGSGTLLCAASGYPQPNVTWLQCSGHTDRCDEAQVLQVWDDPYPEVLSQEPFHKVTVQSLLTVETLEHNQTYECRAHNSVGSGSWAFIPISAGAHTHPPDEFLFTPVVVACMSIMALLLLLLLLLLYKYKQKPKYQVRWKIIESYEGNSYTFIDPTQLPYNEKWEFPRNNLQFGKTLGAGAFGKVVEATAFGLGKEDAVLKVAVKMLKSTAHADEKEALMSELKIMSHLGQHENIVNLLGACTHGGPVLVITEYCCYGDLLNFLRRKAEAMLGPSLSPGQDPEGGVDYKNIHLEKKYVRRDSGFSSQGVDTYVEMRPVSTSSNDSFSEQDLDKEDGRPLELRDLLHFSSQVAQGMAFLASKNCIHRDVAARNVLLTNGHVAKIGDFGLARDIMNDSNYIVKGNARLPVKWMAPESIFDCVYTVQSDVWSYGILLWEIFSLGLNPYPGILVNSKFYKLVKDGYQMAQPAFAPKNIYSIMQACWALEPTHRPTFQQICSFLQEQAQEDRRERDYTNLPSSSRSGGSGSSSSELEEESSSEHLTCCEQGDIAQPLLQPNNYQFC
Excerpt: as §2

PCTK1 = target: T3, PCTK1 (Homo sapiens, UniProt Q00536); assay: KINOMEscan binding assay; conditions: 1000 nM, percent control relative to vehicle
T3 construct: purchased DiscoveRx KINOMEscan
Excerpt: as §2

p38-beta = target: T4, p38-beta (Homo sapiens, UniProt Q15759); assay: KINOMEscan binding assay; conditions: 1000 nM, percent control relative to vehicle
T4 construct: purchased DiscoveRx KINOMEscan
Excerpt: as §2

YANK3 = target: T5, YANK3 (Homo sapiens, UniProt Q86UX6); assay: KINOMEscan binding assay; conditions: 1000 nM, percent control relative to vehicle
T5 construct: purchased DiscoveRx KINOMEscan
Excerpt: as §2

PAK4 = target: T6, PAK4 (Homo sapiens, UniProt O96013); assay: KINOMEscan binding assay; conditions: 1000 nM, percent control relative to vehicle
T6 construct: purchased DiscoveRx KINOMEscan
Excerpt: as §2

PLK1 = target: T7, PLK1 (Homo sapiens, UniProt P53350); assay: KINOMEscan binding assay; conditions: 1000 nM, percent control relative to vehicle
T7 construct: purchased DiscoveRx KINOMEscan
T7 sequence (P53350 whole entry): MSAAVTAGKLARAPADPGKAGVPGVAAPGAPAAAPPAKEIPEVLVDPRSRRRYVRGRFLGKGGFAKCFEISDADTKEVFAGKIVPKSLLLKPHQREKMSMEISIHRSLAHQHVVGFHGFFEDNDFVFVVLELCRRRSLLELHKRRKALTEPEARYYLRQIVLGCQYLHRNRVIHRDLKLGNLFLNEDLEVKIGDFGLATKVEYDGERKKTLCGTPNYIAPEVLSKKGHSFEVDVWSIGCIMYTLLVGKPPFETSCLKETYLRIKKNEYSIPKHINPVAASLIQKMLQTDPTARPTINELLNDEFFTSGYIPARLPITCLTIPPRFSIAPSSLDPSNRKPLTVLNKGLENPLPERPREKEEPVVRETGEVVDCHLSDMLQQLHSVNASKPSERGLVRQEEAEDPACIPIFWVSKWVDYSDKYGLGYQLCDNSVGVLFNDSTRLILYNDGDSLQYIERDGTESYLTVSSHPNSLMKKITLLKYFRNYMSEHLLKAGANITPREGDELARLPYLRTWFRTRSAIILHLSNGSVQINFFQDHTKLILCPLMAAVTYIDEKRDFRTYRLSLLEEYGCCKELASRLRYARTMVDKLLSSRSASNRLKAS
Excerpt: as §2

ZAP70 = target: T8, ZAP70 (Homo sapiens, UniProt P43403); assay: KINOMEscan binding assay; conditions: 1000 nM, percent control relative to vehicle
T8 construct: purchased DiscoveRx KINOMEscan
T8 sequence (P43403 whole entry): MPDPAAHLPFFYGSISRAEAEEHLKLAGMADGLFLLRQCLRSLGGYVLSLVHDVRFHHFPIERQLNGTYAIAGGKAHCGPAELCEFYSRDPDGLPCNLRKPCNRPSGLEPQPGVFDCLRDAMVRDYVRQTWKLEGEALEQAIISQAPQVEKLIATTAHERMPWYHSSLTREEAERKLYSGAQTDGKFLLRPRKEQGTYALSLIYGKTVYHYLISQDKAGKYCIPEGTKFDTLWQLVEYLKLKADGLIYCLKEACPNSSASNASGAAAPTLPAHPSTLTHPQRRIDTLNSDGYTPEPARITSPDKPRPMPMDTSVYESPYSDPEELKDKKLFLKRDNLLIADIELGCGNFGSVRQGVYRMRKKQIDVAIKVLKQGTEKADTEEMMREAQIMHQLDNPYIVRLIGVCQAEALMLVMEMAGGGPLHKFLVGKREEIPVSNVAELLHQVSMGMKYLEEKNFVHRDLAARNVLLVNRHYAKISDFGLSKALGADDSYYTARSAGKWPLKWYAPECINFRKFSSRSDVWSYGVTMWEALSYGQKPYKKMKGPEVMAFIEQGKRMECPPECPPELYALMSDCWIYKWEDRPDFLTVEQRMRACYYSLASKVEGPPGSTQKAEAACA
Excerpt: as §2

ROCK2 = target: T9, ROCK2 (Homo sapiens, UniProt O75116); assay: KINOMEscan binding assay; conditions: 1000 nM, percent control relative to vehicle
T9 construct: purchased DiscoveRx KINOMEscan
T9 sequence (O75116 whole entry): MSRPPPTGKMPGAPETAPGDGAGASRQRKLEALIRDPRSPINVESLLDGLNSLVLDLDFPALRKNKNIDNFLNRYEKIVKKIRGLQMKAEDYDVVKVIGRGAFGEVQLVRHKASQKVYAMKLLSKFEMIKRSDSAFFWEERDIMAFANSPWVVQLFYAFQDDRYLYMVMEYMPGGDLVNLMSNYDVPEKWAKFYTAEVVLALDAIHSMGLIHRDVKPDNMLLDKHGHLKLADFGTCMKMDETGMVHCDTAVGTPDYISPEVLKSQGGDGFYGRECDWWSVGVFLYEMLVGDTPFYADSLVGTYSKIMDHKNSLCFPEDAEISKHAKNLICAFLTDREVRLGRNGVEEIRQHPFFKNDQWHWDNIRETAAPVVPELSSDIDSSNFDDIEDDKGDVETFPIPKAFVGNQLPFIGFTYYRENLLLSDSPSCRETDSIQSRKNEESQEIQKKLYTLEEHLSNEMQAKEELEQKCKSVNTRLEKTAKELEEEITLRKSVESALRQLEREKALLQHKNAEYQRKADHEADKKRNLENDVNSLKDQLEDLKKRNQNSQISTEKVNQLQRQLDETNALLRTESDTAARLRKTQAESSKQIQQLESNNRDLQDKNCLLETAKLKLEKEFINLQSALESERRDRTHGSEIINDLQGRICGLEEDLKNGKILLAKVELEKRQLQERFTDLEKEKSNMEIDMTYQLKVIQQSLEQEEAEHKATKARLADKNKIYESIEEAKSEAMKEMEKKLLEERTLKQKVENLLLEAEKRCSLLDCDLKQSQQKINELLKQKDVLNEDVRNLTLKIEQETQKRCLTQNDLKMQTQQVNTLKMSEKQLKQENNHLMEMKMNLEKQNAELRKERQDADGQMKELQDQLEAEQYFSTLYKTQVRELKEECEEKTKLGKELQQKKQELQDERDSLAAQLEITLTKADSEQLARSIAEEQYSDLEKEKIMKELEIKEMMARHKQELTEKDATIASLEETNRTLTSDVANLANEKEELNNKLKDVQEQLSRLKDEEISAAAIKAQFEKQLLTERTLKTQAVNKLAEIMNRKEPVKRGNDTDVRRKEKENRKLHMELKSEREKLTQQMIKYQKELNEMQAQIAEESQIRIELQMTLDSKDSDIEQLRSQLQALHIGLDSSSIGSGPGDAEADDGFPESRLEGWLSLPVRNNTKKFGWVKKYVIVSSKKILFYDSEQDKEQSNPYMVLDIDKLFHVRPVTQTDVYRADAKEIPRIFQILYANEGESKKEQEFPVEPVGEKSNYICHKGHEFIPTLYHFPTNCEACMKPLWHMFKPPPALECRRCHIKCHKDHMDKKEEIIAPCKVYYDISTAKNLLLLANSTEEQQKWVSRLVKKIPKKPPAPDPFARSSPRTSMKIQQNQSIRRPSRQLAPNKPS
Excerpt: as §2

[5] = target: T10, TYK2 (JH1domain-catalytic) (Homo sapiens, UniProt P29597); assay: KINOMEscan binding assay; conditions: 1000 nM, percent control relative to vehicle
T10 construct: TYK2 (JH1domain-catalytic); purchased DiscoveRx KINOMEscan
T10 sequence (P29597 888-1187 limits assumed): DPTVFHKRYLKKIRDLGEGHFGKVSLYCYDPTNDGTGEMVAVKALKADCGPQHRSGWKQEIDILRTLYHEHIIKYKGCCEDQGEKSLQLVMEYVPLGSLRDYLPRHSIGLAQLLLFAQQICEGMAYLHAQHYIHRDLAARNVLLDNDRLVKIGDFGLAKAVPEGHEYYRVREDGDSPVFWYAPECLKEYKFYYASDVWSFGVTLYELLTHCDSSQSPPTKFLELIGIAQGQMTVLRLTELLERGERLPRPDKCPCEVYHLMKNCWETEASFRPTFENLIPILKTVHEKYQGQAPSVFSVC
Excerpt: as §2

BRAF (V600E) = target: T11, BRAF (V600E) (Homo sapiens, UniProt P15056, V600E); assay: KINOMEscan binding assay; conditions: 1000 nM, percent control relative to vehicle
T11 construct: purchased DiscoveRx KINOMEscan
T11 sequence (P15056 whole entry V600E): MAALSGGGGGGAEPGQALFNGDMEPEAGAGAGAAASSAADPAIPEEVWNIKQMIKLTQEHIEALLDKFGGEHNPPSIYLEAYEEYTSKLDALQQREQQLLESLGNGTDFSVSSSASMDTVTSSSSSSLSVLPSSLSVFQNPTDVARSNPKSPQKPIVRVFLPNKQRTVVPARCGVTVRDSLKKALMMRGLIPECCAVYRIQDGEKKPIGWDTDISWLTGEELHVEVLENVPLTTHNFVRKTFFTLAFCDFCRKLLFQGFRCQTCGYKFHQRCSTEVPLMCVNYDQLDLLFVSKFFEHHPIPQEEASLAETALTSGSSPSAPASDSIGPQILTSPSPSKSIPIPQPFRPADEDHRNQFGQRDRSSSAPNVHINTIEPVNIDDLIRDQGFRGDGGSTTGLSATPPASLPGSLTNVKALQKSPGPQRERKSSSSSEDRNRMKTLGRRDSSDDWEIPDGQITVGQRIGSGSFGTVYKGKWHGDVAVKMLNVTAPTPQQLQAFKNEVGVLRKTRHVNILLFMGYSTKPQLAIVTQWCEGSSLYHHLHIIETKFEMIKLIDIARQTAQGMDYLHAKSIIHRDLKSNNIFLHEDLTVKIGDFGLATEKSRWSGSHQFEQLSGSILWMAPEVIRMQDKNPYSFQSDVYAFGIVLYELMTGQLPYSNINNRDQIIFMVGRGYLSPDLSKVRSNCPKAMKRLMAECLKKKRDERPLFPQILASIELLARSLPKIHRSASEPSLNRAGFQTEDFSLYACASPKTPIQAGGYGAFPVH
Excerpt: as §2

JNK2 = target: T12, JNK2 (Homo sapiens, UniProt P45984); assay: KINOMEscan binding assay; conditions: 1000 nM, percent control relative to vehicle
T12 construct: purchased DiscoveRx KINOMEscan
T12 sequence (P45984 whole entry): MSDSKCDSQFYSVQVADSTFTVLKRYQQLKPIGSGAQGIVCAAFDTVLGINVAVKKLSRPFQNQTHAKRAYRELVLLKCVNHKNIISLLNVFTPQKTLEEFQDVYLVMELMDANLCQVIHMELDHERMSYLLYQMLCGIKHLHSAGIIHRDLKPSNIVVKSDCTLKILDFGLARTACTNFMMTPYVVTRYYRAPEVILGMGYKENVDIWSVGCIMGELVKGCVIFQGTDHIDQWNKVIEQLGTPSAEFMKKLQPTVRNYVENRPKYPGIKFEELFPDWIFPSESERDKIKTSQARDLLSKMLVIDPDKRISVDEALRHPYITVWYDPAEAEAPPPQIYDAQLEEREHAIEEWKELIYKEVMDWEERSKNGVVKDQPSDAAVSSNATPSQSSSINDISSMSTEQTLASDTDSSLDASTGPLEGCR
Excerpt: as §2

KIT(D816V) = target: T13, KIT(D816V) (Homo sapiens, UniProt P10721, D816V); assay: KINOMEscan binding assay; conditions: 1000 nM, percent control relative to vehicle
T13 construct: purchased DiscoveRx KINOMEscan
Excerpt: as §2

MAPKAPK2 = target: T14, MAPKAPK2 (Homo sapiens, UniProt P49137); assay: KINOMEscan binding assay; conditions: 1000 nM, percent control relative to vehicle
T14 construct: purchased DiscoveRx KINOMEscan
Excerpt: as §2

PKAC-alpha = target: T15, PKAC-alpha (Homo sapiens, UniProt P17612); assay: KINOMEscan binding assay; conditions: 1000 nM, percent control relative to vehicle
T15 construct: purchased DiscoveRx KINOMEscan
Excerpt: as §2

CNC(=O)c1cccc(-c2ccc3c(N4C5CCC4COC5)nc(N4CCOC[C@@H]4C)nc3n2)c1 [MTI-31]
antitumor efficacy [1]: limited efficacy | IC50 ([2]; read-out: concentration achieving 50% inhibition of mTORC1 and mTORC2 substrates, 786-O, U87MG and MDA-MB-453 cells, 6 h treatment): ≤ 120 nM | EC50 ([2]; several relevant tumor models (cells), read-out: EC50, inhibition of mTORC1/mTORC2 signaling): ≤ 120 nM | reduction in acetyl-CoA (MDA-MB-453 cells [3]): 67% | suppression of de novo lipid synthesis (14C-glucose-to-lipid conversion rate) (MDA-MB-453 cells [4]): 70% | effect on de novo lipid synthesis (MDA-MB-231 cells): did not significantly reduce lipid synthesis | % Control (PDGFRB): 100% | % Control (CSF1R): 99% | % Control (PCTK1): 87% | % Control (p38-beta): 100% | % Control (YANK3): 85% | % Control (PAK4): 100% | % Control (PLK1): 78% | % Control (ZAP70): 72% | % Control (ROCK2): 73% | % Control [5]: 63% | % Control (BRAF (V600E)): 93% | % Control (JNK2): 96% | % Control (KIT(D816V)): 97% | % Control (MAPKAPK2): 87% | % Control (PKAC-alpha): 98%

— publication PMC5341858, “Molecular regulation of apoptotic machinery and lipid metabolism by mTORC1/mTORC2 dual inhibitors in preclinical models of HER2+/PIK3CAmut breast cancer” (Oncotarget, 2016)
